Blank lines part the entries; values can stand above or below the compound they belong to.
Key:
Type in all cases: physicochemical
[1] = Alternative beta-cyclodextrins for complexation with budesonide (% assay); conditions: for % Assay: budesonide inhalation solution 0.188 mg/mL
Procedure: (§1) Preparation of Lab Batches: Tared a clean/dry beaker+stir bar. Weighed and transferred Budesonide and cyclodextrin into the beaker and mixed dry to achieve uniform dispersion. Dissolved with a portion of stock buffer solution to create a saturated ionic phase and mixed for 5-20 minutes. Slowly diluted with the buffer solution and mixed for an additional 5-10 minutes. The pH of the solution was then adjusted with 1M citric acid or 1M NaOH and diluted to the final volume with purified water. While mixing, the solution was sparged with nitrogen for 30 minutes.
Alternative Beta-Cyclodextrins for Complexation: Laboratory batches of budesonide inhalation solution 0.188 mg/mL were prepared in buffer and water according to the procedure described above using 2-hydroxyethyl-B-cyclodextrin and Heptakis 2,6-Di-O-Methyl-B-cyclodextrin.

[2] = Complexation rate in buffer vs. water (filtered slurry, UV-Vis); conditions: excess Budesonide, 2 g 2-HY-B-CD in 12.5 mL concentrated buffer or water; FIG. 1
Procedure: To evaluate the initial association rate of Budesonide with 2-hydroxypropyl-beta-cyclodextrin, excess Budesonide was mixed with 2 g of 2-HY-B-CD in 12.5 mL of concentrated buffer solution or water. 1.0 mL of this slurry was filtered through a 0.2 syringe filter to remove un-complexed Budesonide and evaluated by UV-Vis at 2 minute intervals. A positive control prepared from filtered Budesonide Inhalation Suspension containing 0.25 mg/mL of Budesonide was used to ensure non-interference. […] This is consistent with the particle size distribution of the API which has a small percentage of Budesonide with <0.2 μm particle size diameter. This small amount of Budesonide was determined not to be significant enough to bias the results.

[3] = Filtration study of laboratory batches (assay before and after 0.22 μm filters); conditions: Budesonide with 2-hydroxypropyl-β-cyclodextrin, room temperature
Procedure: In this study 50 mL of 5 separate laboratory batches were filtered through PTFE, PVDF, and PES 0.22 μm filters. In the case that the complexation reaction was not completed, the filtration process would remove the un-complexed budesonide producing a significant difference between the assay values before and after filtration. For each of the lab batches tested, no significant difference between pre and post filter assay values was detected, indicating 100% complexation.

[4] = Minimum concentration of 2-hydroxypropyl-B-cyclodextrin for complexation (assay)
Procedure: Studies were conducted to determine the minimum concentration of 2-Hy-B-cyclodextrin required to achieve 100% budesonide complexation. […] To evaluate if a lower concentration may be used a study was conducted to evaluate if 100% complexation was possible at between 0.5% and 3.0% cyclodextrin. • Complexation efficiency in buffer vs. water: Traditional methods of complexation are usually carried out in water. We conducted studies to evaluate the efficiency of Budesonide-cyclodextrin complexation using a complexation solution of high ionic strength and using purified water. • Alternative Salts or Complexation: The ionic strength of the Buffer solution was calculated to be approximately 508 mol/m^−3. Two alternative salts, Sodium Chloride and Potassium Chloride, and a Phosphate buffer were prepared at the same ionic strength. Laboratory batches of budesonide inhalation solution were prepared using each alternative ionic adjuster to evaluate the effects of various salts on the formulation process. • Alternative Beta-Cyclodextrins for Complexation: […] additional Beta Cyclodextrins, 2-hydroxyethyl-B-cyclodextrin and Heptakis 2,6-Di-O-Methyl-B-cyclodextrin, were evaluated as potential alternatives for complexation with Budesonide.
as §1
Laboratory batches of budesonide inhalation Solution 0.188 mg/mL were prepared to determine the minimum concentration of 2-Hydroxypropyl-B-cyclodextrin required for an effective formulation. Each laboratory batch was prepared as per the procedure described above.

[5] = Complexation efficiency of budesonide with 2-HY-B-cyclodextrin in buffer vs. water (end point % assay); conditions: for % Assay at T = min. (amount of Budesonide complexed): 3% 2-HY-B-Cyclodextrin; for time to reach 100% complexation: determined from the data
Procedure: as §1
An end point analysis was conducted to evaluate the efficiency of the formulation procedure. Laboratory batches of Budesonide Inhalation Solution were prepared in 3% 2-HY-B-Cyclodextrin and assayed to evaluate the efficiency of the formulation procedure. During the second study, the rate of complexation between Budesonide and 2-HY-B-Cyclodextrin was evaluated in both Buffer and Water.
Six laboratory batches of Budesonide Inhalation Solution were prepared as described above, 3 each in buffer and water. The amount of Budesonide complexed was evaluated at 5 minutes, 8 minutes and 12 minutes for each solvent and compared to the expected concentration at the 100% level.

[6] = Preliminary proof of concept studies of the new complexation process
[7] = EDTA and gamma-cyclodextrin effects on formulation stability; conditions: for effect on formulation stability / effect of varying the amount on stability: 90 days at 40° C.; for effect of varying the amount on stability: varied beginning at 0.05%
Procedure: A study was designed to evaluate the effects of EDTA and γ-CD on the formulation stability. Both γ-CD and EDTA were varied beginning at 0.05% and tested at 30 day intervals for 90 days stored at 40° C.

[8] = budesonide at 0.188 mg/mL, in buffer

- % Assay ([1]; 3% cyclodextrin): 66.7%
- % Assay ([1]; 6% cyclodextrin): 90.3%
- % Assay ([1]; 8% cyclodextrin): 96.4%
- efficiency of complexation possible ([1]; within the proposed range of cyclodextrin (3%-8%)): 100%
Compound: 2-Hydroxyethyl-B-cyclodextrin

- rate of complexation with 2-hydoxypropyl-B-cyclodextrin [2]: much higher rate in buffer than in water
- time to virtually 100% complexation efficiency [3]: less than 10 minutes
- complexation efficiency ([3]; no organic solvents): ~100%
- minimum desirable concentration of cyclodextrin to meet the USP monograph [4]: ≥ 3.0%
- Assay ([4]; 0.188 mg/mL, 0.5% cyclodextrin, molar ratio 8.4): 75.9%
- Assay ([4]; 0.188 mg/mL, 1.0% cyclodextrin, molar ratio 16.8): 85.9%
- Assay ([4]; 0.188 mg/mL, 1.5% cyclodextrin, molar ratio 25.2): 91.5%
- Assay ([4]; 0.188 mg/mL, 2.0% cyclodextrin, molar ratio 33.6): 95.5%
- Assay ([4]; 0.188 mg/mL, 2.5% cyclodextrin, molar ratio 41.9): 95.7%
- complexation of Budesonide ([4]; 3.0% 2-Hydroxypropyl-B-cyclodextrin, molar ratio 50.33): 100%
- complexation of Budesonide ([4]; 4% (w/v) beta-cyclodextrin, Budesonide at 0.188 mg/mL, stable): 100%
- ratio of epimer A (of total content) ([4]; below 3.0% Beta-cyclodextrin, USP criterion 40%-51%): exceeded 51%
- Assay ([4]; budesonide inhalation solution 0.188 mg/mL, 3.0% 2-Hydroxypropyl-B-cyclodextrin, molar ratio CD:Budesonide 50.3): 99.4%
- % Assay at T = min. (amount of Budesonide complexed) ([5]; solvent Buffer, 5 minutes, vs expected concentration at 100% level): 91.1%
- % Assay at T = min. (amount of Budesonide complexed) ([5]; solvent Buffer, 8 minutes): 96.3%
- % Assay at T = min. (amount of Budesonide complexed) ([5]; solvent Buffer, 12 minutes): 99.7%
- % Assay at T = min. (amount of Budesonide complexed) ([5]; solvent Water, 5 minutes): 71.9%
- % Assay at T = min. (amount of Budesonide complexed) ([5]; solvent Water, 8 minutes): 78.1%
- % Assay at T = min. (amount of Budesonide complexed) ([5]; solvent Water, 12 minutes): 89.7%
- increase in the initial complexation efficiency ([5]; batches in concentrated buffer solution over those prepared in water): ~22%
- increase in efficiency ([5]; buffer vs. water, from times to 100% complexation): 180%
- time to reach 100% complexation ([5]; in buffer): approximately 9 minutes
- time to reach 100% complexation ([5]; in water): ~16.2 min
Compound: CCCC1O[C@@H]2C[C@H]3[C@@H]4CCC5=CC(=O)C=C[C@]5(C)[C@H]4[C@@H](O)C[C@]3(C)[C@]2(C(=O)CO)O1 (stereo partly drawn) [Budesonide, 16,17-(butylidenebis(oxy))-11,21-dihydroxy-, (11-β,16-α)-pregna-1,4-diene-3,20-dione]

- percent of HP-β-CD required [6]: < 10%
Compound: 2-Hydroxypropyl-β-cyclodextrin [HP-β-CD]

- effect on formulation stability [7]: positive effect on stability
- effect of varying the amount on stability [7]: no significant effects
Compound: OC[C@H]1O[C@@H]2O[C@H]3[C@H](O)[C@@H](O)[C@@H](O[C@H]4[C@H](O)[C@@H](O)[C@@H](O[C@H]5[C@H](O)[C@@H](O)[C@@H](O[C@H]6[C@H](O)[C@@H](O)[C@@H](O[C@H]7[C@H](O)[C@@H](O)[C@@H](O[C@H]8[C@H](O)[C@@H](O)[C@@H](O[C@H]9[C@H](O)[C@@H](O)[C@@H](O[C@H]1[C@H](O)[C@H]2O)O[C@@H]9CO)O[C@@H]8CO)O[C@@H]7CO)O[C@@H]6CO)O[C@@H]5CO)O[C@@H]4CO)O[C@@H]3CO [γ-CD, Gamma-cyclodextrin]

- effect on formulation stability [7]: positive effect on stability
- effect on growth of impurity D ([7]; previous studies): helps control the growth of impurity D
- effect of varying the amount on stability [7]: no significant effects
Compound: O=C(O)CN(CCN(CC(=O)O)CC(=O)O)CC(=O)O [EDTA]

- efficiency of complexation with available budesonide [1, 8]: 100%
- time to 100% efficiency of complexation [1, 8]: 3 to 5 min
- % Assay ([1]; 3% cyclodextrin): 101.9%
Compound: COCC1OC2OC3C(COC)OC(OC4C(COC)OC(OC5C(COC)OC(OC6C(COC)OC(OC7C(COC)OC(OC8C(COC)OC(OC1C(O)C2OC)C(OC)C8O)C(OC)C7O)C(OC)C6O)C(OC)C5O)C(OC)C4O)C(OC)C3O (stereo not drawn) [2,6-di-o-mehtyl, Heptakis 2,6-Di-O-Methyl-B-cyclodextrin]

— patent publication US20150202308A1, “BUDESONIDE FORMULATION” (Nephron Pharmaceuticals Corporation, priority 2014, published 2015)
